Legend:
[1] = biological target: T1, ALK2R206H (mutant ALK2, N-terminally tagged with GST) (Homo sapiens, UniProt Q04771, R206H); experiment: ALK binding assay (LANTHASCREEN TR-FRET competitive binding, displacement of Kinase Tracer 178); conditions: read-out: Binding Assay (IC50 class)
T1 construct: purchased Carna Bioscience or ThermoFisher 09-148 or PV6232
T1 sequence (Q04771 21-509 R206H): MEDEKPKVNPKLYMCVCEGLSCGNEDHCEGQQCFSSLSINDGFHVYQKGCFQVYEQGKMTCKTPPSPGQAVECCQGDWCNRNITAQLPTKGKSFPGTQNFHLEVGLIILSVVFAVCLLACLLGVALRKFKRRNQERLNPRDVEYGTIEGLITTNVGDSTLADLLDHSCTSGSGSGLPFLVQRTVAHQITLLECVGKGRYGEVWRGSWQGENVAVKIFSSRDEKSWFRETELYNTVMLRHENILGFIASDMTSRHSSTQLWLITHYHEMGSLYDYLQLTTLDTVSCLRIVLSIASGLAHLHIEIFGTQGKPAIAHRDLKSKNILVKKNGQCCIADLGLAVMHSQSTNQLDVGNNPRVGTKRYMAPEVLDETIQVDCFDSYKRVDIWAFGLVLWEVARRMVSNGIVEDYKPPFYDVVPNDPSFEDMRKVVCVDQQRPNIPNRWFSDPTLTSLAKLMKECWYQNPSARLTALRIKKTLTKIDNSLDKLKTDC
Procedure, shortened: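 Competitive displacement of Kinase Tracer 178 (50 nM) from N-terminally GST-tagged mutant ALK2 R206H (2-5 nM) by compound, detected by TR-FRET with Eu-anti-GST antibody (4-10 nM). 30 min room temperature incubation, 1% DMSO final; normalized signal fitted to 4-parameter log dose response for IC50.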

[2] = biological target: T2, human ALK2 R206H (Homo sapiens, UniProt Q04771, R206H); experiment: Cell-based ALK2-R206H cell activity assay (Smad1-Ser463/Ser465 phosphorylation by AlphaLISA in HEK293-ALK2-R206H cells); conditions: phospho-Smad1 AlphaLISA, read-out: Cell Line (Cell Assay, IC50 class)
T2 construct: expressed in transfected cells; host or cells: HEK293 (ATCC CRL1573), lentivirus transduction, blasticidin selection
T2 sequence (Q04771 21-509 R206H): T1 sequence (Q04771 21-509 R206H)
Method: Example 11. Cell-Based ALK2-R206H Cell Activity Assay
A HEK293 (ATCC, Cat No. CRL1573) based stable cell line expressing human ALK2 R206H cDNA (synthesized by GeneScript, Piscataway, N.J.) and a FLAG tag at the C-terminus was generated by lentivirus transduction and subsequent blasticidin (Life Technologies, Cat No. A1113902) selection at 10 μg/ml for >2 wks. This cell line was named HEK293-ALK2-R206H.
B. Measurement of Smad1-Ser463/Ser465 Phosphorylation by AlphaLISA
HEK293-ALK2-R206H cells were grown, harvested, and then resuspended in serum-free, phenol red-free DMEM high glucose media (Life Technologies, Cat No. 31053). The media also contained 50 units/ml penicillin and 50 μg/ml streptomycin (Life Technologies, Cat. No. 15070-063). HEK293-ALK2-R206H cells were then plated in white opaque 384-wells microplates (2×10^4/well) (OptiPlate-384, PerkinElmer, Waltham, Mass., Cat No. 6007299) overnight (>16h) at 37° C. 5% CO2 for use in the assay.
Test compounds were first diluted to 4 mM or 0.4 mM and then serially diluted 3-fold into 10 different concentrations using DMSO. Each concentration of compound was further diluted 40-fold with phenol red-free DMEM (Life Technologies, Cat No. 31053). 2 μl of the diluted compounds were then dispensed into the HEK293-ALK2-R206H cell-containing wells of the microplates in duplicates. In this way, each compound was tested in 10 doses (3-fold serial dilution with the top concentration being 10 μM or 1 μM). Liquid handling was achieved using a Bravo Automated Liquid Handling Platform (Agilent Technologies). DMSO without compound was used as a negative control. The positive control was 1 μM LDN193189, a known bone morphogenetic protein (BMP inhibitor).
After 2-3 hours of incubation with test compound or control, the cells were lysed and signal was developed using ALPHASCREEN® SUREFIRE® SMAD1 (p-Ser463/465) cellular kinase assay kit (PerkinElmer, Cat No. TGRSM1S10K) following the manufacturer's recommended protocol. The microplates were read using Perkin Elmer ENVISION® plate reader (emission […]). The signal reflected the level of phospho-Ser/463/465-Smad1 in the lysate. The raw data were plotted using the DMSO negative and LDN193189 positive controls as the 0% and 100% inhibition, respectively. The 10-point dose response curve was used to calculate the IC50 values.
The results of this assay are shown in Table 3 in the column labeled “Cell Assay” wherein “A” represents an IC50 of less than or equal to 100 nM; “B” an IC50 of greater than 100 nM and less than or equal to 500 nM; “C” an IC50 of greater than 500 nM. Blank values in the table indicate that the particular compound was not tested in this assay.

| IC50 [1] | IC50 [2] | Compound |
| --- | --- | --- |
| ≤ 10 nM | 100 to 500 nM | Cc1nn(C)cc1-c1cc2c(N3CCN(C(=O)OC4COC4)CC3)ccnc2[nH]1 [Compound 151] |
| ≤ 10 nM | 100 to 500 nM | CCOC(=O)N1CCN(c2ccnc3[nH]c(-c4cnn(C(C)(C)C#N)c4)cc23)CC1 [Compound 213] |
| ≤ 10 nM | ≤ 100 nM | Cc1nc(-c2cc3c(N4CCN(C(=O)[C@H]5C[C@H](C#N)C5)CC4)ccnc3[nH]2)cs1 [Compound 205, (1r,3r)-3-(4-(2-(2-methylthiazol-4-yl)-1H-pyrrolo[2,3-b]pyridin-4-yl)piperazine-1-carbonyl)cyclobutanecarbonitrile] |
| ≤ 10 nM | ≤ 100 nM | O=C(OC1COC1)N1CCN(c2ccnc3[nH]c(-c4nc5c(s4)COCC5)cc23)CC1 [Compound 371] |
| ≤ 10 nM | ≤ 100 nM | Cn1cnc(-c2[nH]c3nccc(N4CCN(C(=O)OC5COC5)CC4)c3c2C#N)c1 [Compound 208] |
| ≤ 10 nM | ≤ 100 nM | Cc1nc(-c2cc3c(N4CCN(C(=O)O[C@H]5C[C@H](F)C5)CC4)ccnc3[nH]2)cn1C [Compound 244] |
| ≤ 10 nM | ≤ 100 nM | O=C(OC1COC1)N1CCN(c2ccnc3[nH]c(-c4ccc(C5(O)CCOCC5)cn4)cc23)CC1 [Compound 446] |
| ≤ 10 nM | ≤ 100 nM | CC(C)N1CCC[C@H](c2ccc(-c3cc4c(N5CCN(C(=O)OC6COC6)CC5)ccnc4[nH]3)cc2)C1 [Compound 468] |
| ≤ 10 nM | 100 to 500 nM | CCOC(=O)N1CCN(c2ccnc3[nH]c(-c4cn(C)nn4)cc23)CC1 [Compound 13] |
| ≤ 10 nM | ≤ 100 nM | Cc1nc(-c2[nH]c3nccc(N4CCN(C(=O)O[C@H]5C[C@H](F)C5)CC4)c3c2C#N)cs1 [Compound 365] |
| ≤ 10 nM | ≤ 100 nM | Cn1cnc(-c2cc3c(N4CCN(C(=O)OC5COC5)CC4)ccnc3[nH]2)c1 [Compound 89] |
| ≤ 10 nM | ≤ 100 nM | O=C(OC1COC1)N1CCN(c2ccnc3[nH]c(-c4cnn(C(F)F)c4)cc23)CC1 [Compound 279] |
| ≤ 10 nM | ≤ 100 nM | Cn1cc(-c2cc3c(N4CCN(C(=O)OCC(F)F)CC4)ccnc3[nH]2)cn1 [Compound 126] |
| ≤ 10 nM | ≤ 100 nM | Cc1nc(-c2cc3c(N4CCN(C(=O)OC5COC5)CC4)ccnc3[nH]2)cn1C [Compound 147] |
| ≤ 10 nM | ≤ 100 nM | O=C(OC1COC1)N1CCN(c2ccnc3[nH]c(-c4cn(C5CCOCC5)cn4)cc23)CC1 [Compound 403] |
| ≤ 10 nM | ≤ 100 nM | CCOC(=O)N1CCN(c2ccnc3[nH]c(-c4ccc(C5(O)CCOCC5)cn4)cc23)CC1 [Compound 396] |
| ≤ 10 nM | 100 to 500 nM | CCOC(=O)N1CCN(c2ccnc3[nH]c(-c4cnn(C)c4CC)cc23)CC1 [Compound 100] |
| ≤ 10 nM | ≤ 100 nM | CC(C)N1CCC[C@@H](c2ccc(-c3cc4c(N5CCN(C(=O)OC6COC6)CC5)ccnc4[nH]3)cc2)C1 [Compound 466] |
| ≤ 10 nM | ≤ 100 nM | Cc1csc(-c2cc3c(N4CCN(C(=O)OC5COC5)CC4)ccnc3[nH]2)c1 [Compound 167] |

More lines, now with the values behind:

| Compound | IC50 [1] | IC50 [2] |
| --- | --- | --- |
| Cn1cc(-c2[nH]c3nccc(N4CCN(C(=O)OC5COC5)CC4)c3c2Br)cn1 [Compound 426] | ≤ 10 nM | 100 to 500 nM |
| CCOC(=O)N1CCN(c2ccnc3[nH]c(-c4ccc(OC(C)C)cc4)cc23)CC1 [Compound 221] | ≤ 10 nM | 100 to 500 nM |
| Cn1cnc(-c2[nH]c3nccc(N4CCN(C(=O)OC5CC(F)(F)C5)CC4)c3c2C#N)c1 [Compound 370] | ≤ 10 nM | ≤ 100 nM |
| O=C(OC1COC1)N1CCN(c2ccnc3[nH]c(-c4cn(C5COC5)cn4)cc23)CC1 [Compound 301] | ≤ 10 nM | 100 to 500 nM |
| Cc1ncsc1-c1cc2c(N3CCN(C(=O)OC4COC4)CC3)ccnc2[nH]1 [Compound 175] | ≤ 10 nM | 100 to 500 nM |
| CCN1CCN(c2ccc(-c3cc4c(N5CCN(C(=O)C6CC6)CC5)ccnc4[nH]3)c(F)c2)CC1 [Compound 444] | ≤ 10 nM | ≤ 100 nM |
| CCS(=O)(=O)c1ccc(-c2cc3c(N4CCN(C(=O)C5CC5)CC4)ccnc3[nH]2)cc1 [Compound 362] | ≤ 10 nM | ≤ 100 nM |
| CCOC(=O)N1CCN(c2ccnc3[nH]c(-c4ccccn4)c(Cl)c23)CC1 [Compound 115] | ≤ 10 nM | ≤ 100 nM |
| CCOC(=O)N1CCN(c2ccnc3[nH]c(-c4ccc(C5(OC)CCN(C(C)CF)CC5)cn4)cc23)CC1 (centres unmarked) [Compound 476] | ≤ 10 nM | ≤ 100 nM |
| Cn1cc(-c2cc3c(N4CCN(C(=O)O[C@H]5C[C@H](C#N)C5)CC4)ccnc3[nH]2)cn1 [Compound 202] | ≤ 10 nM | ≤ 100 nM |
| Cn1cc(-c2cc3c(N4CCN(C(=O)C5CC(F)C5)CC4)ccnc3[nH]2)cn1 (centres unmarked) [Compound 93] | ≤ 10 nM | ≤ 100 nM |
| Cn1cc(-c2cc3c(N4CCN(C(=O)OC5COC5)CC4)ccnc3[nH]2)nc1Cl [Compound 275] | ≤ 10 nM | ≤ 100 nM |
| CCOC(=O)N1CCN(c2ccnc3[nH]c(-c4ccc(C#N)cc4)cc23)CC1 [Compound 53] | ≤ 10 nM | ≤ 100 nM |
| CCOC(=O)N1CCN(c2ccnc3[nH]c(-c4csc(C#N)c4)cc23)CC1 [Compound 86] | ≤ 10 nM | ≤ 100 nM |
| CC(C)(O)c1ccc(-c2cc3c(N4CCN(C(=O)C5CC5)CC4)ccnc3[nH]2)cc1 [Compound 195] | ≤ 10 nM | ≤ 100 nM |
| Cn1cc(-c2cc3c(N4CCN(C(=O)OC5(C)COC5)CC4)ccnc3[nH]2)cn1 [Compound 152] | ≤ 10 nM | 100 to 500 nM |
| Cc1nc(-c2cc3c(N4CCN(C(=O)OC5COC5)CC4)ccnc3[nH]2)cs1 [Compound 170] | ≤ 10 nM | ≤ 100 nM |
| O=C(OC1COC1)N1CCN(c2ccnc3[nH]c(-c4csc(C(F)(F)F)n4)cc23)CC1 [Compound 408] | ≤ 10 nM | 100 to 500 nM |
| O=C(OC1CC1)N1CCN(c2ccnc3[nH]c(-c4nc5c(s4)COCC5)cc23)CC1 [Compound 311] | ≤ 10 nM | ≤ 100 nM |
| NC1(c2ccc(-c3cc4c(N5CCN(C(=O)C6CC6)CC5)ccnc4[nH]3)cc2)CC1 [Compound 183] | ≤ 10 nM | ≤ 100 nM |
| CC(C)N1CCC(C)(c2ccc(-c3cc4c(N5CCN(C(=O)OC6COC6)CC5)ccnc4[nH]3)cc2)CC1 [Compound 473] | ≤ 10 nM | ≤ 100 nM |
| Cn1cnc(-c2[nH]c3nccc(N4CCN(C(=O)OC5CC5)CC4)c3c2C#N)c1 [Compound 130] | ≤ 10 nM | ≤ 100 nM |
| CN(C)CCOc1ccc(-c2cc3c(N4CCN(C(=O)C5CC5)CC4)ccnc3[nH]2)cc1 [Compound 343] | ≤ 10 nM | ≤ 100 nM |
| Cc1cnc(-c2cc3c(N4CCN(C(=O)C5CC5)CC4)ccnc3[nH]2)s1 [Compound 34] | ≤ 10 nM | 100 to 500 nM |

— patent US11236086B2, “Substituted pyrrolopyridines as inhibitors of activin receptor-like kinase” (BLUEPRINT MEDICINES CORPORATION, priority 2017, dated 2022)
